Results reported in patent US6340689B1 (priority 1999, dated 2002).

What was measured:
[1] = test system: Erythromycin-resistant Legionella spp. other than L. pneumophila; type: cell-based
[2] = test system: Erythromycin-resistant L. pneumophila; type: cell-based, Legionella pneumophila

Row | Compound | Mean PAE [1] | Mean PAE [2] | PAE (mean PAE) [2] | PAE [2]
1 | CO/N=C1\CN(c2nc3c(cc2F)c(=O)c(C(=O)O)cn3C2CC2)CC1CN (racemic) [Gemifloxacin, (R,S)-7-(3-aminomethyl-4-methoxyiminopyrrolidin-1-yl)-1-cyclopropyl-6-fluoro-4-oxo-1,4-dihydro-1,8-naphthyridine-3-carboxylic acid] | 3.34 ± 2 h | 4.65 ± 3 h | 4.65 h | –
2 | CC[C@H]1OC(=O)[C@H](C)[C@@H](O[C@H]2C[C@@](C)(OC)[C@@H](O)[C@H](C)O2)[C@H](C)[C@@H](O[C@@H]2O[C@H](C)C[C@H](N(C)C)[C@H]2O)[C@](C)(O)C[C@@H](C)CN(C)[C@H](C)[C@@H](O)[C@]1(C)O [Azithromycin] | 2.13 ± 1 h | 2.16 ± 1 h | – | –
3 | O=C(O)c1cn(C2CC2)c2cc(N3CCNCC3)c(F)cc2c1=O [Ciprofloxacin] | 2.13 ± 3 h | 2.86 ± 2 h | – | –
4 | CC[C@H]1OC(=O)[C@H](C)[C@@H](O[C@H]2C[C@@](C)(OC)[C@@H](O)[C@H](C)O2)[C@H](C)[C@@H](O[C@@H]2O[C@H](C)C[C@H](N(C)C)[C@H]2O)[C@](C)(OC)C[C@@H](C)C(=O)[C@H](C)[C@@H](O)[C@]1(C)O [Clarithromycin] | 1.60 ± 2 h | 1.90 ± 1 h | – | 1.9 h
5 | CC[C@H]1OC(=O)[C@H](C)[C@@H](O[C@H]2C[C@@](C)(OC)[C@@H](O)[C@H](C)O2)[C@H](C)[C@@H](O[C@@H]2O[C@H](C)C[C@H](N(C)C)[C@H]2O)[C@](C)(O)C[C@@H](C)C(=O)[C@H](C)[C@@H](O)[C@]1(C)O [Erythromycin] | 0.44 ± 1 h | 0.90 ± 1 h | – | –
6 | Cc1c(F)c(N2CCNC(C)C2)cc2c1c(=O)c(C(=O)O)cn2C1CC1 (centres unmarked) [Grepafloxacin] | 3.67 ± 1 h | 4.18 ± 3 h | 4.18 h | –
7 | C[C@H]1COc2c(N3CCN(C)CC3)c(F)cc3c(=O)c(C(=O)O)cn1c23 [Levofloxacin] | 3.24 ± 1 h | 2.59 ± 2 h | – | 2.59 h
8 | COc1c(N2C[C@@H]3CCCN[C@@H]3C2)c(F)cc2c(=O)c(C(=O)O)cn(C3CC3)c12 [Moxifloxacin] | 2.02 ± 1 h | 3.38 ± 2 h | 3.38 h | –
9 | CC1COc2c(N3CCN(C)CC3)c(F)cc3c(=O)c(C(=O)O)cn1c23 (centres unmarked) [Ofloxacin] | 4.13 ± 2 h | 2.99 ± 1 h | – | –
10 | CO[C@H]1/C=C/O[C@@]2(C)Oc3c(C)c(O)c4c(O)c(c(/C=N/N5CCN(C)CC5)c(O)c4c3C2=O)NC(=O)/C(C)=C\C=C\[C@H](C)[C@H](O)[C@@H](C)[C@@H](O)[C@@H](C)[C@H](OC(C)=O)[C@@H]1C [Rifampicin] | 5.6 ± 3 h | 0.93 ± 4 h | – | 0.9 h
11 | N[C@@H]1[C@H]2CN(c3nc4c(cc3F)c(=O)c(C(=O)O)cn4-c3ccc(F)cc3F)C[C@@H]12 [Trovafloxacin] | 2.25 ± 2 h | 2.83 ± 2 h | 2.83 h | –
